From patent US9682995B2, “Amino-substituted isothiazoles” (BAYER PHARMA AKTIENGESELLSCHAFT, priority 2013, dated 2017)

Key:
human Bub1 = human Bub1 (Homo sapiens (Human), UniProt O43683); assay: Bub1 kinase assay (TR-FRET); format: biochemical; settings: 10 μM ATP; read-out: Bub1 avg (IC50 [mol/l])
Text: Bub1-inhibitory activity of compounds of the present invention was quantified employing the Bub1 TR-FRET assay as described in the following paragraphs.
N-terminally His6-tagged recombinant catalytic domain of human Bub1 (amino acids 704-1085), expressed in insect cells (Hi5) and purified by Ni-NTA affinity chromatography and subsequent size exclusion chromatography, was used as enzyme. As substrate for the kinase reaction the biotinylated peptide biotin-Ahx-VLLPKKSFAEPG (C-terminus in amid form) was used which can be purchased e.g. form the company Biosyntan (Berlin, Germany).
For the assay 50 nl of a 100 fold concentrated solution of the test compound in DMSO was pipetted into a black low volume 384 well microtiter plate (Greiner Bio-One, Frickenhausen, Germany), 2 μl of a solution of Bub1 in aqueous assay buffer [50 mM Tris/HCl pH 7.5, 10 mM magnesium chloride (MgCl2), 200 mM potassium chloride (KCl), 1.0 mM dithiothreitol (DTT), 0.1 mM sodium ortho-vanadate, 1% (v/v) glycerol, 0.01% (w/v) bovine serum albumine (BSA), 0.005% (v/v) Trition X-100 (Sigma), 1× Complete EDTA-free protease inhibitor mixture (Roche)] were added and the mixture was incubated for 15 min at 22° C. to allow pre-binding of the test compounds to the enzyme before the start of the kinase reaction. Then the kinase reaction was started by the addition of 3 μl of a solution of adenosine-tri-phosphate (ATP, 16.7 μM=>final conc. in the 5 μl assay volume is 10 μM) and substrate (1.67 μM=>final conc. in the 5 μl assay volume is 1 μM) in assay buffer and the resulting mixture was incubated for a reaction time of 60 min at 22° C. The concentration of Bub1 was adjusted depending of the activity of the enzyme lot and was chosen appropriate to have the assay in the linear range, typical concentrations were in the range of 200 ng/ml. The reaction was stopped by the addition of 5 μl of a solution of TR-FRET detection reagents (0.2 μM streptavidine-XL665 [Cisbio Bioassays, Codolet, France] and 1 nM anti-phosho-Serine antibody [Merck Millipore, cat. #35-001] and 0.4 nM LANCE EU-W1024 labeled anti-mouse IgG antibody [Perkin-Elmer, product no. AD0077, as an alternative a Terbium-cryptate-labeled anti-mouse IgG antibody from Cisbio Bioassays can be used]) in an aqueous EDTA-solution (50 mM EDTA, 0.2% (w/v) bovine serum albumin in 100 mM HEPES pH 7.5).
The resulting mixture was incubated 1 h at 22° C. to allow the formation of complex between the phosphorylated biotinylated peptide and the detection reagents. Subsequently the amount of phosphorylated substrate was evaluated by measurement of the resonance energy transfer from the Eu-chelate to the streptavidine-XL. Therefore, the fluorescence emissions at 620 nm and 665 nm after excitation at 350 nm was measured in a TR-FRET reader, e.g. a Rubystar or Pherastar (both from BMG Labtechnologies, Offenburg, Germany) or a Viewlux (Perkin-Elmer). The ratio of the emissions at 665 nm and at […] was taken as the measure for the amount of phosphorylated substrate. The data were normalised (enzyme reaction without inhibitor=0% inhibition, all other assay components but no enzyme=100% inhibition).

HeLa = assay: Proliferation assay (crystal violet), HeLa; format: cell-based; settings: Homo sapiens, 96 h, 4 days, read-out: Inhibition of proliferation IC50 HeLa
Description: Cultivated tumor cells (cells were ordered from ATCC, except HeLa-MaTu and HeLa-MaTu-ADR, which were ordered from EPO-GmbH, Berlin) were plated at a density of 1000 to 5000 cells/well, depending on the growth rate of the respective cell line, in a 96-well multititer plate in 200 μL of their respective growth medium supplemented 10% fetal calf serum. After 24 hours, the cells of one plate (zero-point plate) were stained with crystal violet (see below), while the medium of the other plates was replaced by fresh culture medium (200 μl), to which the test substances were added in various concentrations (0 μM, as well as in the range of 0.001-10 μM; the final concentration of the solvent dimethyl sulfoxide was 0.5%). The cells were incubated for 4 days in the presence of test substances. Cell proliferation was determined by staining the cells with crystal violet: the cells were fixed by adding 20 μl/measuring point of an 11% glutaric aldehyde solution for 15 minutes at room temperature. After three washing cycles of the fixed cells with water, the plates were dried at room temperature. The cells were stained by adding 100 μl/measuring point of a 0.1% crystal violet solution (pH 3.0). After three washing cycles of the stained cells with water, the plates were dried at room temperature. The dye was dissolved by adding 100 μl/measuring point of a 10% acetic acid solution. Absorption was determined by photometry at a wavelength of 595 nm. The change of cell number, in percent, was calculated by normalization of the measured values to the absorption values of the zero-point plate (=0%) and the absorption of the untreated (0 μm) cells (=100%). The IC50 values were determined by means of a 4 parameter fit.

Chain of human Bub1 (O43683 704-1085): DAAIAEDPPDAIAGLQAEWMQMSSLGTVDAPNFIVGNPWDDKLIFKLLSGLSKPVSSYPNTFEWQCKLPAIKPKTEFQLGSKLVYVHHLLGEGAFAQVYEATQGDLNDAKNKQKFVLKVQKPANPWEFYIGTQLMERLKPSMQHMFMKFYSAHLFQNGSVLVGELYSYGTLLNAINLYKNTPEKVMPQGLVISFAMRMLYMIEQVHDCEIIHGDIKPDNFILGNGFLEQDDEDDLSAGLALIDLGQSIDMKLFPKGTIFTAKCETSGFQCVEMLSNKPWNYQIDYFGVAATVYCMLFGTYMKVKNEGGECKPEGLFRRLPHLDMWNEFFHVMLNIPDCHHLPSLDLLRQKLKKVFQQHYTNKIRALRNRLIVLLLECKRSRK

Compound	IC50 (human Bub1) [µM]	IC50 (HeLa) [µM]
COc1ccc(NC(=O)c2c(C)nsc2Nc2cnc3cc(C(F)(F)F)ccc3n2)cn1 [Example 45, N-(6-Methoxypyridin-3-yl)-3-methyl-5-{[6-(trifluoromethyl)quinoxalin-2-yl]amino}-1,2-thiazole-4-carboxamide]	> 20	0.34
COC(=O)c1cnc(Nc2snc(C)c2C(=O)Nc2ccc(F)c(F)c2)o1 [Example 97, Methyl 2-({4-[(3,4-difluoro-phenyl)carbamoyl]-3-methyl-1,2-thiazol-5-yl}amino)-1,3-oxazole-5-carboxylate]	> 20	10
Cc1nsc(Nc2cc(C#N)ccn2)c1C(=O)Nc1ccc(Cl)c(F)c1 [Example 54, N-(4-Chloro-3-fluorophenyl)-5-[(4-cyanopyridin-2-yl)amino]-3-methyl-1,2-thiazole-4-carboxamide]	> 20	0.8
Cc1nsc(Nc2nc3c(C(F)(F)F)cccc3s2)c1C(=O)Nc1ccc(F)c(F)c1 [Example 51, N-(3,4-Difluorophenyl)-3-methyl-5-{[4-(trifluoromethyl)-1,3-benzothiazol-2-yl]-amino}-1,2-thiazole-4-carboxamide]	> 20	0.57
Cc1nsc(Nc2cnc(C(=O)N(C)C)cn2)c1C(=O)Nc1ccc(F)c(F)c1 [Example 109, 5-({4-[(3,4-Difluorophenyl)carbamoyl]-3-methyl-1,2-thiazol-5-yl}amino)-N,N-dimethylpyrazine-2-carboxamide]	> 20	5
Cc1nsc(Nc2cnc3ccccc3n2)c1C(=O)Nc1ccc(OC2CCCCC2)nc1 [Example 115, N-[6-(Cyclohexyloxy)pyridin-3-yl]-3-methyl-5-(quinoxalin-2-ylamino)-1,2-thiazole-4-carboxamide]	> 20	1.3
COc1ccc(NC(=O)c2c(C)nsc2Nc2cnc3c(F)c(F)ccc3n2)cn1 [Example 43, 5-[(5,6-Difluoroquinoxalin-2-yl)amino]-N-(6-methoxypyridin-3-yl)-3-methyl-1,2-thiazole-4-carboxamide]	> 20	0.42
COc1ccc(NC(=O)c2c(C)nsc2Nc2cnc3ccc(Cl)cc3n2)cn1 [Example 42, 5-[(7-Chloroquinoxalin-2-yl)amino]-N-(6-methoxypyridin-3-yl)-3-methyl-1,2-thiazole-4-carboxamide]	> 20	1.2
Cc1nsc(Nc2cnc3ccccc3n2)c1C(=O)Nc1ccc(Oc2ccccc2)nc1 [Example 112, 3-Methyl-N-(6-phenoxypyridin-3-yl)-5-(quinoxalin-2-ylamino)-1,2-thiazole-4-carboxamide]	> 20	2
Cc1nsc(Nc2cc(C#N)ccn2)c1C(=O)Nc1ccc(Oc2ccccc2)nc1 [Example 111, 5-[(4-Cyanopyridin-2-yl)amino]-3-methyl-N-(6-phenoxypyridin-3-yl)-1,2-thiazole-4-carboxamide]	> 20	2.1
CCOC(=O)c1cnc(Nc2snc(C)c2C(=O)Nc2ccc(F)c(F)c2)o1 [Example 96, Ethyl 2-({4-[(3,4-difluorophenyl)carbamoyl]-3-methyl-1,2-thiazol-5-yl}amino)-1,3-oxazole-5-carboxylate]	> 20	10
Cc1nsc(Nc2cc(C#N)ccn2)c1C(=O)Nc1ccc(Oc2ccc(F)cc2F)nc1 [Example 114, 5-[(4-Cyanopyridin-2-yl)amino]-N-[6-(2,4-difluorophenoxy)pyridin-3-yl]-3-methyl-1,2-thiazole-4-carboxamide]	–	1.1

More lines, now with the values ahead:

IC50 (human Bub1) [µM]	IC50 (HeLa) [µM]	Compound
> 20	3.3	COc1ncc(NC(=O)c2c(C)nsc2Nc2cnc3ccccc3n2)cc1C [Example 121, N-(6-Methoxy-5-methylpyridin-3-yl)-3-methyl-5-(quinoxalin-2-ylamino)-1,2-thiazole-4-carboxamide]
> 20	2.5	CCc1ccccc1NC(=O)c1c(C)nsc1Nc1cnc2ccccc2n1 [Example 19, N-(2-Ethylphenyl)-3-methyl-5-(quinoxalin-2-ylamino)-1,2-thiazole-4-carboxamide]
> 20	6.7	CCc1ccccc1NC(=O)c1c(C)nsc1Nc1nccnc1C#N [Example 34, 5-[(3-Cyanopyrazin-2-yl)amino]-N-(2-ethylphenyl)-3-methyl-1,2-thiazole-4-carboxamide]
> 20	10	CCOC(=O)c1coc(Nc2snc(C)c2C(=O)Nc2ccc(OC)nc2)n1 [Example 100, Ethyl 2-({4-[(6-methoxypyridin-3-yl)carbamoyl]-3 methyl-1,2-thiazol-5-yl}amino)-1,3-oxazole-4-carboxylate]
> 20	> 10	CCc1ccnc(Nc2snc(C)c2C(=O)Nc2ccccc2CC)n1 [Example 17, N-(2-Ethylphenyl)-5-[(4-ethylpyrimidin-2-yl)amino]-3-methyl-1,2-thiazole-4-carboxamide]
> 20	> 10	CCc1ccccc1NC(=O)c1c(C)nsc1Nc1ncccc1C#N [Example 8, 5-[(3-Cyanopyridin-2-yl)amino]-N-(2-ethylphenyl)-3-methyl-1,2-thiazole-4-carboxamide]
8.59	1	CCc1ccccc1NC(=O)c1c(C)nsc1Nc1nc2ccccc2s1 [Example 14, 5-(1,3-Benzothiazol-2-ylamino)-N-(2-ethylphenyl)-3-methyl-1,2-thiazole-4-carboxamide]
> 20	> 10	CCc1ccccc1NC(=O)c1c(C)nsc1Nc1nc2ccccc2nc1C [Example 21, N-(2-Ethylphenyl)-3-methyl-5-[(3-methylquinoxalin-2-yl)amino]-1,2-thiazole-4-carboxamide]
> 20	> 10	COc1ccc(NC(=O)c2c(C)nsc2Nc2cccc(C#N)n2)cn1 [Example 37, 5-[(6-Cyanopyridin-2-yl)amino]-N-(6-methoxypyridin-3-yl)-3-methyl-1,2-thiazole-4-carboxamide]
> 20	1.2	CCc1ccccc1NC(=O)c1c(C)nsc1Nc1nc(C)nc2ccccc12 [Example 35, N-(2-Ethylphenyl)-3-methyl-5-[(2-methylquinazolin-4-yl)amino]-1,2-thiazole-4-carboxamide]
> 20	0.79	Cc1nsc(Nc2cnccn2)c1C(=O)Nc1ccc(Cl)c(F)c1 [Example 56, N-(4-Chloro-3-fluorophenyl)-3-methyl-5-(pyrazin-2-ylamino)-1,2-thiazole-4-carboxamide]
–	9.9	COc1ccc(NC(=O)c2c(C)nsc2Nc2ncccc2C#N)cn1 [Example 36, 5-[(3-Cyanopyridin-2-yl)amino]-N-(6-methoxypyridin-3-yl)-3-methyl-1,2-thiazole-4-carboxamide]
